Results from patent US10087142B2, “Azetidine derivatives useful as modulators of cortical cathecolaminergic neurotransmission” (Integrative Research Laboratories Sweden AB, priority 2015, dated 2018).

Key:
DOPAC = assay: Neurochemistry: tissue levels of DOPAC in brain regions; type: in vivo, rat; conditions: 33 μmol/kg s.c., rats, 65 min before sacrifice, n = 5; for DOPAC frontal cortex ± SEM: frontal cortex tissue; for DOPAC striatum ± SEM: striatum tissue
Description: The change in turnover of dopamine in the terminal areas of the ascending dopaminergic projections of the mammalian brain can be illustrated by measuring of changes in biochemical indices in the brain e.g. changes in concentrations of dopamine metabolites such as 3,4-dihydroxyphenyl-acetic acid (DOPAC) in the striatum and frontal cortex.
The measurement of the tissue content of DOPAC is well established in the field of research since the 1960's. In short, male Sprague-Dawley rats are administered the test compound 60 minutes prior to decapitation. The brain is rapidly taken out and dissected. The striatum is rapidly frozen and subsequently quantitatively analyzed with respect to its content of DOPAC by means of HPLC and electrochemical detection. The number of animals used for each test compound/vehicle is 5/group.
After the behavioural activity sessions, the rats were decapitated and their brains rapidly taken out and put on an ice-cold petri-dish. The brains were dissected into a right and a left part of which the right part was analyzed for neurochemicals with HPLC and the left part was analyzed for gene expression. The limbic forebrain, the striatum, the frontal cortex, the hippocampus and the remaining hemispheral parts of each rat were dissected and frozen. Each brain part was subsequently analyzed with respect to its content of monoamines and their metabolites.
The monoamine transmitter substances (NA (noradrenaline), DA (dopamine), 5-HT (serotonin)) as well as one corresponding acid, (DOPAC (3,4-dihydroxyphenylacetic acid), were quantified in brain tissue homogenates by HPLC separations and electrochemical detection.
The analytical method is based on two chromatographic separations dedicated for amines or acids. Two chromatographic systems share a common auto injector with a 10-port valve and two sample loops for simultaneous injection on the two systems. Both systems are equipped with a reverse phase column (Luna C18 (2), dp 3 μm, 50*2 mm i.d., Phenomenex) and electrochemical detection is accomplished at two potentials on glassy carbon electrodes (MF-1000, Bioanalytical Systems, Inc.). The column effluent is passed via a T-connection to the detection cell or to a waste outlet. This is accomplished by two solenoid valves, which block either the waste or detector outlet. By preventing the chromatographic front from reaching the detector, better detection conditions are achieved. The aqueous mobile phase (0.4 ml/min) for the acid system contains citric acid 14 mM, sodium citrate 10 mM, Methanol 15% (v/v) and EDTA 0.1 mM. Detection potentials relative to Ag/AgCl reference are 0.45 and 0.60V. […] Detection potentials relative to Ag/AgCl reference are 0.45 and 0.65V.

Arc mRNA = assay: m-RNA analysis: Arc mRNA tissue levels in brain regions; type: in vivo, rat; conditions: 33 μmol/kg s.c., rats, 65 min before sacrifice, n = 5; for Arc frontal cortex ± SEM: frontal cortex tissue; for Arc striatum ± SEM: striatum tissue
Protocol: Sesack et al. (Anatom Substr Glut-Dopamine Inter. Annals of NY AcadSci, 2003, 1003; 36-52) discloses that the dopaminergic systems of the brain interact strongly with central glutamate neurotransmission. To investigate potential effects of compounds as disclosed herein on cortical and striatal NMDA type glutamate receptor related synaptic signaling, Arc mRNA induction was assessed upon acute administration. Arc (Arc/Arg3.1-activity regulated cytoskeleton-associated protein/activity-regulated gene 3.1; (Link W et al., Proc Natl Acad Sci, USA, 1995, 92; 5734-8 and Lyford G L et al., Neuron, 1995, 14; 433-45), is an immediate early gene (IEG), induced by synaptic activity, whose expression and localization at synaptic sites is triggered specifically by NMDA receptor activation and strongly related to neural plasticity (Steward and Worley, Neuron, 2001, 30; 227-40, Kawashima et al., PNAS, 2009, 106(1); 316-21 and Bramham et al., Exp Brain Res, 2010, 200; 125-40).
[…] were dissected into […] different areas: Limbic system (containing nucleus accumbens, most parts of the olfactory tubercle, ventral pallidum), striatum, frontal cortex, hippocampus and the remaining cortex.
Total RNA was prepared by the guanidin isothiocyanate method (Chomczynski P and Sacchi N, Anal Biochem, 1987, 162(1); 156-9). RNA pellets were solved in RNAse-free water and stored at −80° C. The sample concentration was determined spectrophotometrically by a NanoDrop ND1000 (Saveen Werner). A quality indicator number and an integrity number of r-RNA were measured with an Experion (Bio-rad).
A two-step reversed transcription was performed by using a SuperScript III kit (Invitrogen). 1 μg of total RNA was reverse transcribed with 5 μl 2×RT Reaction Mix, 1 μl RT Enzyme Mix, in a total volume adjusted to 10 μl with DEPC-treated water. 1 U of E. coli RNase H was added. c-DNA was diluted 40 times and stored at −20° C.
Three sequences (one gene of interest and two reference genes) were amplified together in a triplex PCR-reaction. For real-time PCR measurements: 5 μl of c-DNA reaction was amplified in a 20 μl reaction mixture containing 10 μl PerfeCta Multiplex qPCR Supermix (Quanta, VWR), 3.5 μl RNAse-free water, 0.15 μM of each primer and 0.1 μM of each probe. Real-time PCR was measured on CFX96 (Bio-rad) using the following settings for all genes: 3 min pre-incubation at 95° C. followed by 40 cycles of denaturation at 95° C. for 15 s, annealing and elongation at 60° C. for 1 minute.
Reference genes are HPRT and cyclophilin.
The primer and probe sequences are as follows for measuring of arc:
Correct PCR products are confirmed by agarose gel electrophoresis (2%) PCR products are purified with PCR purification kit from Qiagen (Valencia, Calif., USA). All genes are sequenced at MWG, Germany. […]

## Cl.Fc1cccc(C(F)C2CNC2)c1F (single isomer, unassigned; (-)) [Example 1, (−)-3-[(2,3-Difluorophenyl)(Fluoro)Methyl]Azetidine Hydrochloric Acid Salt]
DOPAC
  DOPAC frontal cortex ± SEM: 188 ± 20% of control means
  DOPAC striatum ± SEM: 100 ± 8% of control means
Arc mRNA
  Arc frontal cortex ± SEM: 169 ± 8% of control means
  Arc striatum ± SEM: 133 ± 9% of control means

## Fc1cc(F)cc(C(F)C2CNC2)c1.O=C(O)/C=C/C(=O)O (single isomer, unassigned; (-)) [Example 3, (−)-3-[(3,5-Difluorophenyl)(Fluoro)Methyl]Azetidine Fumarate Salt]
DOPAC
  DOPAC frontal cortex ± SEM: 161 ± 6% of control means
  DOPAC striatum ± SEM: 83 ± 2% of control means
Arc mRNA
  Arc frontal cortex ± SEM: 137 ± 6% of control means
  Arc striatum ± SEM: 90 ± 7% of control means
